# Measurements published in patent US4939274A, “Hydroxybutenolide derivatives, production and use thereof” (Takeda Chemical Industries, Ltd., priority 1986, dated 1990).
# Assays:
# [1] = system: lipid peroxide formation in rat brain tissue homogenate; test: Activity to inhibit lipid peroxide formation in rat brain tissue homogenate (TBA method); assay type: biochemical; conditions: 10^-5 M; 5% rat brain homogenate, 37° C., 1 hour; n=3, mean; vs. DMSO reference
# Procedure: Male SD rats (12-week-old) were subjected to exsanguination under anesthesia with pentobarbital, then the brain was excised. The brain tissue was homogenized in a phosphate buffer (pH 7.4) to prepare a 5% homogenate. After incubation of the homogenate at 37° C. for 1 hour, the amount of lipid peroxides formed therein was determined by the thiobarbituric acid (TBA) method in accordance with the report of Ohkawa et al. on Analytical Biochemistry, 95, 351, (1979). The test drug was added to the 5% homogenate before incubation so as to make the final concentration be 10^-5 M The activity to inhibit the formation of lipid peroxide was compared with that of the reference group to which was added the solvent (DMSO), and shown by % inhibition.
# mice = test: Acute toxicity in mice; assay type: in vivo; conditions: oral, 300 and 1000 mg/kg
# Procedure: Male Crj-ICR mice (4-week-old, 21 to 26 g) were used. The animals, divided into groups, each consisting of six mice, were administered orally with compounds (4-c, 4-h) at the dosages of 300 and 1000 mg/kg, respectively. Then, each group was housed in a cage and observed for 24 hours.
# The test drugs were suspended in gum arabic and administered at a volume of 0.1 ml/10 g.
# [2] = system: ventricular arrhythmia during coronary artery occlusion-reperfusion in rat hearts; test: Activity to inhibit occurrence of ventricular arrhythmia during coronary artery occlusion-reperfusion in rat hearts; assay type: in vivo; conditions: 50 mg/kg, oral; for Ventricular fibrillation, Incidence (10 min.) / Ventricular tachycardia, Incidence (10 min.): 10 min. observation; for Ventricular fibrillation, Incidence (10 min.): control 4.1 ± 0.7; for Ventricular tachycardia, Incidence (10 min.): control 11.5 ± 5.0; for Ventricular tachycardia, Duration / Ventricular fibrillation, Duration: average ± SEM; for Ventricular tachycardia, Duration: control 26.5 ± 6.8; for Ventricular fibrillation, Duration: control 74.2 ± 30.8; for Exrasystole: control 11.0 ± 4.0; for Mortality: killed/tested animals, control 2/18
# Source text: Male SD rats (9- to 13-week old, 250 to 370 g) were used. The animals were subjected to thoractonomy under artificial respiration while anesthesia was maintained by administering pentobarbital. […] By recording standard limb lead II electrocardiograms, occurrence of ventricular arrhythmia was examined.
# Incidences of ventricular fibrillation and ventricular tachycardia are shown by the percentage of the number of animals presenting the symptoms relative to the number of animals subjected to the test, and the duration of the symptoms was shown in average ±SEM by seconds. Extrasystole is shown by the number of systole/min., and the mortality is shown by the percentage of the number of killed animals relative to the number of test animals.
smiles,measurement,setting,value
CCCCCOc1ccc(C2=C(O)COC2=O)cc1 [Compound 4-a],Inhibition rate (lipid peroxide formation),[1],57.1%
CCCCCCCOc1ccc(C2=C(O)COC2=O)cc1 [Compound 4-b],Inhibition rate (lipid peroxide formation),[1],100.0%
CCCCCCCCCCOc1ccc(C2=C(O)C(C)OC2=O)cc1 (stereo not shown) [Compound 4-d],Inhibition rate (lipid peroxide formation),[1],100.0%
CCCCCCCCCCOc1ccc(C2=C(O)C(c3ccccc3)OC2=O)cc1 (stereo not shown) [Compound 4-e],Inhibition rate (lipid peroxide formation),[1],100.0%
CCCCCCCCCCCOc1ccc(C2=C(O)COC2=O)cc1 [Compound 4-f],Inhibition rate (lipid peroxide formation),[1],89.7%
"CCCCCCCCCCCOc1ccc(C2=C(O)C(c3ccccc3)OC2=O)cc1 (stereo not shown) [Compound 4-g, 2-(4-undecyloxyphenyl)-3-hydroxy-4-phenyl-2-buten-4-olide]",Inhibition rate (lipid peroxide formation),[1],100.0%
"CCCCCCCCCCCCOc1ccc(C2=C(O)COC2=O)cc1 [Compound 4-h, 2-(4-dodecyloxyphenyl)-3-hydroxy-2-buten-4-olide]",recovery from sedation and ptosis,mice,≤ 3 h
same,"state of sedation and ptosis, animals affected",mice; six mice per group,half number of the test animals
same,Inhibition rate (lipid peroxide formation),[1],100.0%
CCCCCCCCCCCCOc1ccc(C2=C(O)C(C)OC2=O)cc1 (stereo not shown) [Compound 4-i],Inhibition rate (lipid peroxide formation),[1],100.0%
CCCCCCCCCCCCCCOc1ccc(C2=C(O)COC2=O)cc1 [Compound 4-j],Inhibition rate (lipid peroxide formation),[1],100.0%
CCCCCCCCCCCCCCCCCCOc1ccc(C2=C(O)COC2=O)cc1 [Compound 4-k],Inhibition rate (lipid peroxide formation),[1],80.1%
"O=C1O[C@H]([C@@H](O)CO)C(O)=C1O [Vitamin C, ascorbic acid]",Inhibition rate (lipid peroxide formation),[1],-71.6%
same,effect on ventricular arrhythmia,[2],no significant effect
same,"Ventricular fibrillation, Incidence (10 min.)",[2],5.4 ± 0.8
same,"Ventricular tachycardia, Incidence (10 min.)",[2],9.5 ± 1.8
same,"Ventricular tachycardia, Duration",[2],12.0 ± 2.9 s
same,"Ventricular fibrillation, Duration",[2],74.1 ± 36.0 s
same,Exrasystole,[2],11.0 ± 0.8 times/min.
same,Mortality,[2],1/12
"Cc1c(C)c2c(c(C)c1O)CC[C@@](C)(CCC[C@H](C)CCC[C@H](C)CCCC(C)C)O2 [Vitamin E, α-tocopherol]",Inhibition rate (lipid peroxide formation),[1],44.9%
same,effect on ventricular arrhythmia,[2],no significant effect
same,"Ventricular fibrillation, Incidence (10 min.)",[2],2.0 ± 0.7
same,"Ventricular tachycardia, Incidence (10 min.)",[2],3.7 ± 1.5
same,"Ventricular tachycardia, Duration",[2],22.3 ± 9.7 s
same,"Ventricular fibrillation, Duration",[2],43.4 ± 36.0 s
same,Exrasystole,[2],7.0 ± 4.1 times/min.
same,Mortality,[2],1/10
